Test results from patent US20090176711A1, “INHIBITORS OF AMYLOID PRECURSOR PROTEIN PROCESSING” (priority 2008, published 2009).

What was measured:
[1] = tested on: Substrate M (Sub M, SEVNLDAEFR; β-secretase cleavage site of APPsw); experiment: Binding of biotin-labeled Substrate M to immobilized complementary (HC) peptides; conditions: substrate not specified
Experimental: Complementary peptides (0.2, 2, 20, and 200 μM) were dissolved in phosphate buffered saline (PBS) (pH 7.4) and fixed to microtiter wells for 5 hr at 37° C. The wells were blocked with blocking buffer (3% BSA/PBS) for 1 hr at 37° C. Either N-terminally biotinylated Substrate W or M (20 μM) in blocking buffer was added and incubated for overnight at 4° C. Streptavidin-horseradish peroxidase in blocking buffer was added to detect resulting bound substrates. The plate was incubated for 2 hr at room temperature (RT), followed by addition of 3,3′,5,5′-tetramethyl-benzidine (TMB) as substrate for horseradish peroxidase for color reaction.
(§1) Reacti-Bind™ maleic anhydride-activated polystyrene plate (Pierce, IL, USA) was coated with 50 μl of HC peptide (200 μM in distilled water) by chemical coupling for 3 h at room temperature (RT) and washed three times with phosphate buffered saline (PBS) containing 0.05% tween 20 (PBST). The plate was blocked with blocking buffer (0.5% gelatin in PBS) for 1 h at RT. After discarding blocking buffer, biotinylated BACE1 substrates (200 μM) in blocking buffer was applied on the plate and incubated for 2.5 h at RT. Each well was washed three times with PBST. The bound biotinylated BACE1 substrates were detected by incubation with streptavidin-horseradish peroxidase (Str-HRP, 125 mU/ml in blocking buffer) for 2 h at RT. Color reaction was carried out with 50 μl of 3,3′,5,5′-Tetramethylbenzidine Liquid Substrate (Sigma-Aldrich, MO, USA). After stopping the reaction by addition of an equal volume of 1 N HCl, absorbance at 450 nm was read in an automated ELISA reader (EL 312e, Bio-Tek Instruments, VT, USA). All assays were carried out in duplicate.

[2] = biological target: T1, cleavage of Sub-ST6Ga11 by rhBACE1 (Rattus norvegicus, UniProt P13721); experiment: HPLC analysis of the cleavage of Sub-ST6Ga11 by rhBACE1; format: biochemical, human; conditions: up to 10 inhibitor/substrate ratio, Sub-ST6Ga11 50 μM, 500 nM enzyme
T1 construct: 19 amino acid region (DYEALTL/QAKEFQMPKSQE) that contains the β-cleavage site for investigation was chosen; purchased A&Pep Co., Inc. (non-labelled peptides); R&D Systems (rhBACE1)
Description: One of the advantages of the APP inhibitor described in the present invention is that it is a peptide or a mimetic that bind to the β-secretase cleavage site of APP, thus not affecting other β-secretase substrates. To confirm the specificity of the inventive APP inhibitor, two different types of substrates were used, APP Sub M and ST6Ga11. Both substrates are cleaved by β-secretase under normal conditions and the effect of the inventive APP inhibitor on the substrate cleavage was monitored by HPLC (See the schematic diagram in FIG. 16.) To carry out these experiments, the concentration of β-secretase required for cleavage of both substrates was determined as shown in FIG. 17. For substantial cleavage of ST6Ga11 substrate, 420 nM of the enzyme was required. Therefore, 420 nM of β-secretase was used for the following experiment.
Various concentrations of HC peptide were preincubated with either Sub M (50 μM) or Sub-ST6Ga11 (50 μM, DYEALTLQAKEFQMPKSQE) peptide corresponding to the β-cleavage site of ST6Ga11 for 2 h at RT. The mixtures containing Sub M was treated with 50 nM of rhBACE1 and that containing Sub-ST6Ga11 was treated with 500 nM enzyme for 12 h at RT. Roughly 50% of each BACE1 substrate was cleaved in the absence of HC peptide. The cleavage products were separated on a C18 reversed-phase HPLC column as described above.

[3] = tested on: cleavage of Substrate M by β-secretase; experiment: Inhibition of cleavage of Substrate M by β-secretase by complementary and deletion peptides (Examples 1, 5, 6; assay format not stated); format: biochemical; conditions: various concentrations, Substrate M (FIG. 8)
Experimental: So far we have focused on c-Sub M peptide. Serial deletions were made from N-terminus or C-terminus of c-Sub M (FIG. 5), and we investigated effect of the deletions on the cleavage of Substrate M. The optimum peptide/substrate ratio for inhibition on the cleavage of substrate was determined by observing the inhibition percentage at various peptide/substrate ratios (FIG. 4). Subsequently, the inhibitory activity of the deletion peptides were tested at 10 inhibitor/substrate ratio and the concentration of the Substrate M was 50 μM. Deletion of the first two amino acids from the N-terminus had little effect on the activity and deletion of five amino acids from the C-terminus of c-Sub M had little effect on the inhibitory activity (FIG. 6). Further deleted peptides were tested for inhibitory activity on the cleavage of Substrate M (FIG. 7).
The above-mentioned peptides that have inhibitory activity were tested at various concentrations for their inhibitory activities on their mutant substrate Substrate M (FIG. 8).

[4] = tested on: APP processing in HEK293-APP cells; experiment: APP inhibitor activity on HEK293-APP cells (βCTF Western blot); format: cell-based, human; conditions: γ-secretase inhibitor and cholesterol added
Experimental: In the neuronal cells of the brain, APP is processed by α-secretase or β-secretase. To investigate the effects of the inhibitors on the cell, a cell based assay system was developed as described in FIG. 10. C-terminal fragment of APP remaining on the cell membrane was detected by Western blot. The resulting C-terminal fragments, αCTF or βCTF are further processed by γ-secretase. However, if the cells are treated with the γ-secretase inhibitor, this processing is blocked. As a result, αCTF or βCTF accumulate in the cell. If β-secretase inhibitor or APP inhibitor is added, this processing is blocked and βCTF disappears.
In addition, γ-secretase inhibitor and cholesterol were added to the cells to increase βCTF level. Commercially available peptide-based β-secretase inhibitor was included as control (Lane 6, FIG. 11). To detect the N-terminal fragment of β-amyloid which is a product of APP processing, 6E10 antibody was employed. […] Recently, it has been reported that the commercially available peptide-based inhibitor had to be linked to an oligoarginine transporter peptide to have inhibitory activity against cells. Therefore, mimetic approach is adopted to produce cell permeable analogs. (Chang et al. J. Neurochemistry 2004; 89:1409-1416).
After confirming the ability of the oligo-arginine coupled APP inhibitors to enter the cells, the inhibitors were applied to HEK293-APP cells overexpressing APP to test their inhibitory activities on APP processing. […] This inhibitor started to show significant inhibitory activity beginning from 0.1 μM (lower panel).

[5] = biological target: T2, Sub-ST6Ga11 (DYEALTLQAKEFQMPKSQE) (Rattus norvegicus, UniProt P13721); experiment: Binding of bio-Sub-ST6Ga11 to immobilized HC peptide; conditions: HC peptide chemically coupled on microtiter plate
T2 construct: 19 amino acid region (DYEALTL/QAKEFQMPKSQE) that contains the β-cleavage site for investigation was chosen; purchased Peptron, Inc; host or cells: chemical synthesis
Experimental: as §1
It was investigated if HC peptide would show specificity for APP in terms of the inhibition of cleavage by BACE1. ST6Ga11 is also cleaved by BACE1. For this experiment, 19 amino acid region (DYEALTL/QAKEFQMPKSQE) that contains the β-cleavage site for investigation was chosen. The 19 amino acid peptide was designated as Sub-ST6Ga11. […]

absorbance in binding test [1]: high absorbance
inhibition of cleavage of Sub-ST6Ga11 by rhBACE1 [2]: about 10%
concentration dependent inhibitory activity, activity group [3]: most active group
binding of bio-Sub-ST6Ga11 [5]: also bound
Sequence: EFCIQIHF [c-Sub M ΔN1C1]
inhibitory activity on APP processing (βCTF) [4]: none of the inhibitors tested showed inhibitory activity
